{
  "source": "patent US12023348B2",
  "about": "“EGR1 targeting molecules for the treatment of inflammatory and hyperproliferative conditions” (The Medical Research, Infrastructure and Health Services …, priority 2015, dated 2024)",
  "key": {"EGR1": {"test_system": "EGR1", "test": "EGR1 RNA expression by qRT-PCR in primary fibroblasts", "type": "cell-based, human", "details": "5 μM over 72 hours, different time points (FIG. 3)", "procedure": "Primary fibroblasts were isolated from human adult skin and were grown in High Glucose DMEM, 10% Fetal Bovine Serum, L-glutamine and Pen-Strep. Medium was changed every 2-3 days. Cells were used at passage 2-3.\n(§1) Of note, when cells were incubated with CaCx and ApDx (NCI, MA USA), they were grown in the appropriate medium with 0.1% FCS only.\nRNA was extracted from cell cultures using an RNA extraction kit (Roche Diagnostics, Mahheim, Germany). cDNA was synthesized from 500 ng of total RNA using the Verso cDNA kit (Thermo Fisher Scientific, Waltham, MA, USA). cDNA PCR amplification was carried out using the Fast SYBR Green Master Mix in a StepOnePlus™ Real-Time PCR System (Applied Biosystems, Foster City, CA, USA) with gene-specific intron-crossing oligonucleotide pairs listed in Table 1 (below). For quantification, standard curves were obtained using serially diluted cDNA amplified in the same qRT-PCR run. The melting temperature (Tm) of the amplified products was measured to confirm the specificity of the reaction conditions. […] Each sample was analyzed in triplicate. mRNA expression level for target gene was normalized to GAPDH. The results are based the amount of target, normalized to an endogenous reference (IACTB) and relative to a calibrator, as calculated by 2-ΔΔCT. […] The expression levels of target genes were expressed as mRNA relative units."}, "SAMD9": {"test_system": "SAMD9", "test": "SAMD9 RNA expression by qRT-PCR in TERC-transformed fibroblasts", "type": "cell-based, human", "details": "5 μM, 24 hours, qRT-PCR vs DMSO (FIG. 1C)", "procedure": "TERC-transformed fibroblasts were transformed with a pBABE-H2AGFP construct containing the human telomerase gene were cultured High Glucose DMEM, 10% FCS, L-glutamine and Pen-Strep (all cell culture regents from Biological Industries, Israel). Medium was changed every 2-3 days. Cells were used at passage 2-3.\nas §1\nRNA was extracted from cell cultures using an RNA extraction kit (Roche Diagnostics, Mahheim, Germany). cDNA was synthesized from 500 ng of total RNA using the Verso cDNA kit (Thermo Fisher Scientific, Waltham, MA, USA). cDNA PCR amplification was carried out using the Fast SYBR Green Master Mix in a StepOnePlus™ Real-Time PCR System (Applied Biosystems, Foster City, CA, USA) with gene-specific intron-crossing oligonucleotide pairs listed in Table 1 (below). For quantification, standard curves were obtained using serially diluted cDNA amplified in the same qRT-PCR run. The melting temperature (Tm) of the amplified products was measured to confirm the specificity of the reaction conditions. […] Each sample was analyzed in triplicate. mRNA expression level for target gene was normalized to GAPDH. The results are based the amount of target, normalized to an endogenous reference (IACTB) and relative to a calibrator, as calculated by 2-ΔΔCT. […]"}, "SAMD9 promoter": {"test_system": "SAMD9 promoter", "test": "High-throughput luciferase reporter screen in HeLa line stably expressing 585 bp SAMD9 promoter fragment", "type": "cell-based, human", "details": "Homo sapiens, HeLa; fold increase in promoter activity by luciferase assay vs cells treated with vehicle only; test drugs 10 μM, 24 hours; read-out: SAMD9 expression fold change in HeLa reporter assay", "procedure": "HeLa cell lines stably expressing the constructs were generated under neomycin selection. Briefly, pGL4.17 containing a SAMD9 promoter fragment spanning 585 bp upstream to the TSS and an empty pGL4.17 vector were transfected into HeLa cells. Forty eight hours after transfection, standard medium was replaced with medium containing 600 μg/ml G418 (Sigma-Aldrich), cells were kept under G418 selection and the selective medium was replaced approximately every 2-3 days. After two passages, colonies of stable cells were isolated, expanded and frozen for further use.\nTest drugs were dispensed at a concentration of 10 μM by a robotic system into 96-well plates containing 9000 cells/well expressing the pGL4.17 reporter construct carrying a 585 bp SAMD9 promoter fragment operably linked to luciferase gene or the empty pGL4.17 luciferase construct (Promega cat. no. E6721). Medium was removed after 24 hours and the cells subjected to Steady-Glo luciferase lysis-substrate solution assay (Promega) as described above. Liquid handling was done with the Tecan (Tecan) Freedom 150 (Robotic & MCA liquid Handling System) and the luciferase reading was done with a robot integrated Tecan Infinite® M1000 reader.\nThis cell line was then used to robotically screen a total of 1496 compounds obtained from the National Cancer Institute Diversity Set III and Oncology Drugs Set III small molecule libraries."}, "[1]": {"test_system": "human psoriatic skin graft", "test": "Chimeric mice carrying human psoriatic skin", "type": "in vivo", "details": "for Clinical and histological psoriasiform phenotype (average improvement score) / Overt toxicity / Epidermal thickness / Keratinocyte proliferation (Ki67): i.p. five times a week; for Clinical and histological psoriasiform phenotype (average improvement score) / Overt toxicity: 10 days; for Clinical and histological psoriasiform phenotype (average improvement score): ApDx 5 mg/kg (p<0.0001), CaCx 15 mg/kg (p<0.05) (FIG. 6); for Overt toxicity / Epidermal thickness / Keratinocyte proliferation (Ki67): ApDx 5 mg/kg or CaCx 15 mg/kg; for Epidermal thickness / Keratinocyte proliferation (Ki67): biopsies after 10 days (FIGS. 7A-F, 8)", "description": "Chimeric mice carrying human psoriatic skin were generated using SCID mice, 2-3 months of age. Animals were maintained in a pathogen-free animal facility. A psoriasis-like phenotype was induced in normal human skin grafted onto the mice by intradermal injection of natural killer/T cells derived from psoriatic patients as previously described [Gilhar A et al. J Invest Dermatol (2011) 131: 118-124].\nFormaldehyde-fixed 5-μm paraffin-embedded sections from skin biopsies were deparaffinized and treated with 3% H2O2 in methanol for 15 minutes at room temperature, warmed in a microwave oven in citrate buffer in a pressure cooker for 25 minutes, and stained with a monoclonal anti-Ki67 antibody (Thermo Scientific) for 1 hour at room temperature. Following 3 washings (10 minutes each) with phosphate-buffered saline (PBS), the antibodies were imaged using the ABC technique (Zymed Laboratories, South San Francisco, CA) and the slides were counterstained with hematoxylin.\nEpidermal thickness was defined as the distance between the granular layer and the basement membrane and was measured at 10 randomly selected locations for each biopsy using NIS-Elements BR 3.2 software (Nikon, NY USA). An image was taken and was manually measured in the software by selecting an upper and lower border, as defined above. The distance was measured in microns.\nRNA was extracted from cell cultures using an RNA extraction kit (Roche Diagnostics, Mahheim, Germany). cDNA was synthesized from 500 ng of total RNA using the Verso cDNA kit (Thermo Fisher Scientific, Waltham, MA, USA). cDNA PCR amplification was carried out using the Fast SYBR Green Master Mix in a StepOnePlus™ Real-Time PCR System (Applied Biosystems, Foster City, CA, USA) with gene-specific intron-crossing oligonucleotide pairs listed in Table 1 (below). For quantification, standard curves were obtained using serially diluted cDNA amplified in the same qRT-PCR run. The melting temperature (Tm) of the amplified products was measured to confirm the specificity of the reaction conditions. Cycling conditions were as follows: 95° C. for 10 minutes, 95° C. for 10 seconds, 62° C. for 15 seconds, and 72° C. for 25 seconds for a total of 40 cycles. Each sample was analyzed in triplicate. mRNA expression level for target gene was normalized to GAPDH. The results are based the amount of target, normalized to an endogenous reference (IACTB) and relative to a calibrator, as calculated by 2-ΔΔCT. All samples were run in triplicate. The expression levels of target genes were expressed as mRNA relative units.\nTo assess the potential therapeutic role of the compounds (ApDx and CaCx) of some embodiments of the invention, the two compounds were administered systemically (i.p) to chimeric mice carrying human psoriatic skin. In short, SCID mice, 2-3 months of age, were maintained in a pathogen-free animal facility. A psoriasis-like phenotype was induced in normal human skin grafted onto the mice by intradermal injection of natural killer/T cells derived from psoriatic patients as previously described [Gilhar A et al. J Invest Dermatol (2011) 131: 118-124]. Two weeks after natural killer/T-cell injection (6 weeks after human skin grafting), mice were injected i.p. five times a week. Four groups of mice were treated as follows: one group of mice was injected five times a week with the vehicle; a second group of mice was injected five times a week ApDx (5 mg/kg); a third group of mice was injected five times a week CaCx (15 mg/kg); and a fourth group of mice, was treated with dexamethasone (DEX) cream applied 5 times a week on the graft, as positive control (DEX was expected to attenuate inflammation in this model). Each group included five mice, and the treatment was performed for a total of 10 days. The grafts were harvested from the four groups of mice, paraffin-embedded, stained for hematoxylin and eosin (H&E), analyzed and scored for the average improvement of the clinical and histological psoriasiform phenotype."}},
  "data": [
    {"smiles": "Cc1c2ccnc(C(N)=O)c2c(C)c2c1[nH]c1ccccc12.Cl", "note": "[Compound 335142, 6H-Pyrido[4,3-b]carbazole-1-carboxamide, 5,11-dimethyl-, monohydrochloride]", "values": [
      {"measurement": "EGR1 expression in primary fibroblast cells", "setting": "EGR1", "result": "significantly down-regulated"},
      {"measurement": "SAMD9 expression in TERC-transformed fibroblasts", "setting": "SAMD9", "result": "significantly induce"},
      {"measurement": "fold induction at 10 µM", "setting": "SAMD9 promoter", "result": 2.95},
      {"measurement": "Clinical and histological psoriasiform phenotype (average improvement score)", "setting": "[1]", "result": "significant clinical and histological attenuation"},
      {"measurement": "Overt toxicity", "setting": "[1]", "result": "No overt toxicity"},
      {"measurement": "Epidermal thickness", "setting": "[1]", "result": "significant decrease"},
      {"measurement": "Keratinocyte proliferation (Ki67)", "setting": "[1]", "result": "significant decrease"},
      {"measurement": "EGR1 RNA levels in treated skin", "setting": "[1]; quantitative PCR vs vehicle group (FIG. 9), CaCx 15 mg/kg i.p.", "result": "significant decrease"}
    ]},
    {"smiles": "CCCN1c2ccc(N)cc2S(=O)(=O)c2cc(Cl)cc(Cl)c21", "note": "[Compound 629971, 7,9-dichloro-5,5-dioxo-10-propylphenothiazin-3-amine]", "values": [
      {"measurement": "EGR1 expression in primary fibroblast cells", "setting": "EGR1", "result": "significantly down-regulated"},
      {"measurement": "SAMD9 expression in TERC-transformed fibroblasts", "setting": "SAMD9", "result": "significantly induce"},
      {"measurement": "fold induction at 10 µM", "setting": "SAMD9 promoter", "result": 4.85},
      {"measurement": "Clinical and histological psoriasiform phenotype (average improvement score)", "setting": "[1]", "result": "significant clinical and histological attenuation"},
      {"measurement": "Overt toxicity", "setting": "[1]", "result": "No overt toxicity"},
      {"measurement": "Epidermal thickness", "setting": "[1]", "result": "significant decrease"},
      {"measurement": "Keratinocyte proliferation (Ki67)", "setting": "[1]", "result": "significant decrease"}
    ]}
  ]
}
